# Laboratory results taken from article PMC6941952, “A homogeneous bioluminescent immunoassay to probe cellular signaling pathway regulation” (Communications Biology, 2020).
# Values joined by “and” are separate entries in the source; they are usually repeats but may differ in a detail not shown here. Equal values may be shown once.
# Tested on: total IκBα
# Assay: NanoBiT cell-based immunoassay, total IκBα in MCF-7 cells
# Parameters: species or system human
# Conditions: 4 h; for Average IkB protein (%) / Raw data IkB / Subtract reagent background IkB / protein (%) IkB: MCF-7, Fig 7c; for protein (%) IkB: replicate
# Method: Prior to NanoBiT Cell-Based Immunoassay, 50,000 cells were seeded in 160 µl of complete growth media per well of a 96-well plate and incubated overnight. […] If necessary, the cell culture media were replaced with serum-free media after the cells were stably adherent on the plate and incubated overnight. To treat cells with activators or inhibitors, medium was changed to 30 µl of medium containing inhibitors. If activation of a specific pathway is needed, the cells were stimulated with 10 µl of medium containing activators. To lyse the cells, 10 µl of lysis buffer containing 0.1% digitonin diluted in 1X immunoassay buffer with protease and phosphatase inhibitors was added and the plates were mixed vigorously for 20 min. Then, 50 µl of an antibody mix containing two primary antibodies against the target protein and NanoBiT detecting antibodies (0.3 µl each per well), diluted in 1X immunoassay buffer was added to the lysates. The plates were incubated at 23 °C for 90 min, followed by the addition of 25 µl of Nano-Glo® reagent consisting of Nano-Glo® Luciferase Assay Substrate mixed with 1X immunoassay buffer. Luminescence was measured using a plate-reading luminometer.
# Single dose or dose response inhibitor treatments were performed prior to activation of the pathways as follows. For IκBα, the cells were treated in 30 µl medium with IKK16 or MG132 for 60 min before the addition of 10 µl of DMEM containing appropriate concentration of TNFα. To measure phosphorylation of AKT or STAT3, the corresponding NanoBiT immunoassays were developed with MCF-7 or A431 cells, respectively, according the same scheme used to develop the IκBα assay using the primary antibodies for AKT and STAT3 described in the reagents section. […] Treatment with LY294002 was performed in 30 µl medium and cells were incubated for 60 min before the addition of 1 µM Insulin. To measure STAT3 phosphorylation, A431 cells were incubated overnight in DMEM medium without serum. […] After addition of the stimulators, the cells were incubated for additional times as follows. IκBα phosphorylation and degradation analyses required both time courses and single time points as described in figures. […] The NanoBiT immunoassay protocol was followed as described above.
# All 96-well assay plates were read using a GloMax® 96 Microplate Luminometer from Promega. The instrument was set to 0.5 s integration time. In order to obtain net change of signal, the reagent background values (signal from the well containing all reagent except primary antibodies) were subtracted from the sample values. To plot and analyze the data, Microsoft Excel and GraphPad Prism® Software were used. IC50 values were determined by using a nonlinear regression fit to a sigmoidal dose response (variable slope).
smiles,measurement,setting,value
C[C@]12CC[C@@H]3c4ccc(O)cc4C[C@@H](CCCCCCCCC[S+]([O-])CCCC(F)(F)C(F)(F)F)[C@H]3[C@@H]1CC[C@@H]2O (stereo partly drawn) [Fulvestrant],Average IkB protein (%),Fulvestrant 0.0976562 nM,103.1%
same,Raw data IkB,Fulvestrant 0.0976562 nM,2320000 and 2388000 and 2321000
same,Subtract reagent background IkB,Fulvestrant 0.0976562 nM,2160700 and 2093700 and 2092700
same,protein (%) IkB,Fulvestrant 0.0976562 nM,102.8% and 100.3% and 106.3%
same,Average IkB protein (%),Fulvestrant 0.195312 nM,102.8%
same,Raw data IkB,Fulvestrant 0.195312 nM,2292000 and 2388000 and 2330000
same,Subtract reagent background IkB,Fulvestrant 0.195312 nM,2161100 and 2103100 and 2065100
same,protein (%) IkB,Fulvestrant 0.195312 nM,102.8% and 100.7% and 104.9%
same,Average IkB protein (%),Fulvestrant 0.390625 nM,106.4%
same,Raw data IkB,Fulvestrant 0.390625 nM,2337000 and 2479000 and 2412000
same,Subtract reagent background IkB,Fulvestrant 0.390625 nM,2252550 and 2185550 and 2110550
same,protein (%) IkB,Fulvestrant 0.390625 nM,107.1% and 104.7% and 107.3%
same,Average IkB protein (%),Fulvestrant 0.78125 nM,107.7%
same,Raw data IkB,Fulvestrant 0.78125 nM,2309000 and 2550000 and 2458000
same,Subtract reagent background IkB,Fulvestrant 0.78125 nM,2323650 and 2231650 and 2082650
same,protein (%) IkB,Fulvestrant 0.78125 nM,110.5% and 106.9% and 105.8%
same,Average IkB protein (%),Fulvestrant 1.5625 nM,109.4%
same,Raw data IkB,Fulvestrant 1.5625 nM,2305000 and 2596000 and 2525000
same,Subtract reagent background IkB,Fulvestrant 1.5625 nM,2368700 and 2297700 and 2077700
same,protein (%) IkB,Fulvestrant 1.5625 nM,110.1% and 105.6%
same,Average IkB protein (%),Fulvestrant 3.125 nM,110.7%
same,Raw data IkB,Fulvestrant 3.125 nM,2392000 and 2556000 and 2547000
same,Subtract reagent background IkB,Fulvestrant 3.125 nM,2330150 and 2321150 and 2166150
same,protein (%) IkB,Fulvestrant 3.125 nM,110.8% and 111.2% and 110.1%
same,Average IkB protein (%),Fulvestrant 6.25 nM,107.5%
same,Raw data IkB,Fulvestrant 6.25 nM,2316000 and 2499000 and 2485000
same,Subtract reagent background IkB,Fulvestrant 6.25 nM,2273600 and 2259600 and 2090600
same,protein (%) IkB,Fulvestrant 6.25 nM,108.1% and 108.2% and 106.2%
same,Average IkB protein (%),Fulvestrant 25 nM,102.2%
same,Raw data IkB,Fulvestrant 25 nM,2228000 and 2399000 and 2343000
same,Subtract reagent background IkB,Fulvestrant 25 nM,2174600 and 2118600 and 2003600
same,protein (%) IkB,Fulvestrant 25 nM,103.4% and 101.5% and 101.8%
same,Average IkB protein (%),Fulvestrant 50 nM,99.5%
same,Raw data IkB,Fulvestrant 50 nM,2216000 and 2302000 and 2278000
same,Subtract reagent background IkB,Fulvestrant 50 nM,2078950 and 2054950 and 1992950
same,protein (%) IkB,Fulvestrant 50 nM,98.9% and 98.4% and 101.3%
same,Average IkB protein (%),Fulvestrant 100 nM,94.0%
same,Raw data IkB,Fulvestrant 100 nM,2084000 and 2146000 and 2219000
same,Subtract reagent background IkB,Fulvestrant 100 nM,1926250 and 1999250 and 1864250
same,protein (%) IkB,Fulvestrant 100 nM,91.6% and 95.8% and 94.7%
same,cytotoxicity inferred from IκBα level,MCF-7 cells,lack of cytotoxicity
same,effect on IκBα protein level,"MCF-7 cells, same compound titration",did not affect
